Laboratory results reported in publication PMC10272271, “MAM-2201 acute administration impairs motor, sensorimotor, prepulse inhibition, and memory functions in mice: a comparison with its analogue AM-2201” (Psychopharmacology, 2023).

Experiments:
Assay type in all cases: in vivo, mouse
CD-1 male mice [1] = assay: Visual object response test; details: AM 251 6 mg/kg i.p. 20 min before MAM-2201 6 mg/kg
Experimental: For the overall study 234 mice were used. In sensorimotor (visual object, visual placing, acoustic, and overall tactile responses) tests for MAM-2201, experiments for each treatment dose (vehicle or 5 different MAM-2201 doses, 0.01, 0.1, 1, 3, and 6 mg/kg) used 8 mice (total mice used: 48) and for MAM-2201 with AM-251 pretreatment, experiments for each dose regimen (vehicle + AM-251 or MAM-2201 + AM-251, 6 mg/kg) used 16 mice. In the analysis of spontaneous locomotion (open field test) for MAM-2201, experiments for each treatment regimen (vehicle or 4 different MAM-2201 doses, 0.01, 0.1, 1, and 6 mg/kg) used 10 mice (total mice used: 50). In the PPI test for MAM-2201, experiments for each treatment (vehicle or 3 different MAM-2201 doses, 0.01, 0.1, and 1 mg/kg) used 10 mice (total mice used: 40), while for MAM-2201 experiments in the Novel Object Recognition (NOR) test for each treatment regimen (vehicle or 3 different MAM-2201 and vehicle or 3 different AM-2201 doses, 0.01, 0.1, and 1 mg/kg) used 10 mice (total mice used: 80). In the present study the effect of MAM-2201 on sensorimotor responses was investigated using a battery of behavioral tests widely used in studies of “safety-pharmacology,” that we routinely adopted in our laboratory, for the preclinical characterization of new molecules in rodents (Ossato et al. [2015]; Vigolo et al. [2015]; Bilel et al. [2020]). The voluntary and involuntary motor responses of the animal to different visual, acoustic, and tactile stimuli were evaluated according to the procedure described in our previous studies (Ossato et al. [2015]; Bilel et al. [2020]). To reduce the number of animals used, mice were evaluated in functional observational tests carried out in a consecutive manner according to the following time scheme: observation of visual object responses (frontal and lateral view), acoustic response, tactile response (vibrissae, corneal and pinnae reflexes), and visual placing response. Sensorimotor tests were measured at 10, 30, 60, 120, 180, 240, and 300 min after injections for the evaluation of the visual object, acoustic and the tactile response, and at 15, 45, 75, 135, 195, 255, and 315 min after injections for the evaluation of visual placing response. Behavioral tests were conducted in a thermostated (temperature: 20–22 °C, humidity: 45–55%) and light (150 lx) controlled room with a background noise of 40 ± 4 dB. The apparatus for the visual object, acoustic and tactile sensorimotor tests consisted of an experimental chamber (350 × 350 × 350 mm) with black methacrylate walls and a transparent front door. During the week before the experiment, each mouse was placed in the box and handled (once a day) on every other day, i.e., 3 times, to get used to both the environment and the experimenter. To avoid olfactory cues, cages were carefully cleaned with a dilute (5%) ethanol solution and rinsed with water. All experiments were performed between 8:30 AM and 2:00 PM and conducted by trained observers working in pairs who were blinded to the treatment being tested (Ossato et al. [2015]). The behavior of mice was videotaped by a camera (B/W USB Camera day & night with varifocal lens; Ugo Basile, Italy) placed at the top or on one side of the box and analyzed off-line by a different trained operator. Spontaneous locomotion studies were conducted in a separate set of animals through ANYMAZE test. Sensory gating was evaluated by analysis of the pre-pulse inhibition (PPI) of the acoustic startle reflex as previously described (Bilel et al. [2020]).
Visual object response test was used to evaluate the ability of the mouse to see an object approaching from the front (frontal view) or the side (lateral view) that typically induces the animal to shift or turn the head, bring the forelimbs in the position of “defense” or retreat from it. For the frontal visual response, a white horizontal bar was moved frontally to the mouse head and the maneuver was repeated 3 times. […]

CD-1 male mice [2] = assay: Visual placing response test; details: AM 251 6 mg/kg i.p. before MAM-2201 6 mg/kg
Experimental: For the overall study 234 mice were used. In sensorimotor (visual object, visual placing, acoustic, and overall tactile responses) tests for MAM-2201, experiments for each treatment dose (vehicle or 5 different MAM-2201 doses, 0.01, 0.1, 1, 3, and 6 mg/kg) used 8 mice (total mice used: 48) and for MAM-2201 with AM-251 pretreatment, experiments for each dose regimen (vehicle + AM-251 or MAM-2201 + AM-251, 6 mg/kg) used 16 mice. In the analysis of spontaneous locomotion (open field test) for MAM-2201, experiments for each treatment regimen (vehicle or 4 different MAM-2201 doses, 0.01, 0.1, 1, and 6 mg/kg) used 10 mice (total mice used: 50). In the PPI test for MAM-2201, experiments for each treatment (vehicle or 3 different MAM-2201 doses, 0.01, 0.1, and 1 mg/kg) used 10 mice (total mice used: 40), while for MAM-2201 experiments in the Novel Object Recognition (NOR) test for each treatment regimen (vehicle or 3 different MAM-2201 and vehicle or 3 different AM-2201 doses, 0.01, 0.1, and 1 mg/kg) used 10 mice (total mice used: 80). […] The voluntary and involuntary motor responses of the animal to different visual, acoustic, and tactile stimuli were evaluated according to the procedure described in our previous studies (Ossato et al. [2015]; Bilel et al. [2020]). To reduce the number of animals used, mice were evaluated in functional observational tests carried out in a consecutive manner according to the following time scheme: observation of visual object responses (frontal and lateral view), acoustic response, tactile response (vibrissae, corneal and pinnae reflexes), and visual placing response. Sensorimotor tests were measured at 10, 30, 60, 120, 180, 240, and 300 min after injections for the evaluation of the visual object, acoustic and the tactile response, and at 15, 45, 75, 135, 195, 255, and 315 min after injections for the evaluation of visual placing response. […] Sensory gating was evaluated by analysis of the pre-pulse inhibition (PPI) of the acoustic startle reflex as previously described (Bilel et al. [2020]). […]

CD-1 male mice [3] = assay: Acoustic response test; details: AM 251 6 mg/kg i.p. before MAM-2201 6 mg/kg
Experimental: For the overall study 234 mice were used. In sensorimotor (visual object, visual placing, acoustic, and overall tactile responses) tests for MAM-2201, experiments for each treatment dose (vehicle or 5 different MAM-2201 doses, 0.01, 0.1, 1, 3, and 6 mg/kg) used 8 mice (total mice used: 48) and for MAM-2201 with AM-251 pretreatment, experiments for each dose regimen (vehicle + AM-251 or MAM-2201 + AM-251, 6 mg/kg) used 16 mice. In the analysis of spontaneous locomotion (open field test) for MAM-2201, experiments for each treatment regimen (vehicle or 4 different MAM-2201 doses, 0.01, 0.1, 1, and 6 mg/kg) used 10 mice (total mice used: 50). In the PPI test for MAM-2201, experiments for each treatment (vehicle or 3 different MAM-2201 doses, 0.01, 0.1, and 1 mg/kg) used 10 mice (total mice used: 40), while for MAM-2201 experiments in the Novel Object Recognition (NOR) test for each treatment regimen (vehicle or 3 different MAM-2201 and vehicle or 3 different AM-2201 doses, 0.01, 0.1, and 1 mg/kg) used 10 mice (total mice used: 80). In the present study the effect of MAM-2201 on sensorimotor responses was investigated using a battery of behavioral tests widely used in studies of “safety-pharmacology,” that we routinely adopted in our laboratory, for the preclinical characterization of new molecules in rodents (Ossato et al. [2015]; Vigolo et al. [2015]; Bilel et al. [2020]). The voluntary and involuntary motor responses of the animal to different visual, acoustic, and tactile stimuli were evaluated according to the procedure described in our previous studies (Ossato et al. [2015]; Bilel et al. [2020]). To reduce the number of animals used, mice were evaluated in functional observational tests carried out in a consecutive manner according to the following time scheme: observation of visual object responses (frontal and lateral view), acoustic response, tactile response (vibrissae, corneal and pinnae reflexes), and visual placing response. Sensorimotor tests were measured at 10, 30, 60, 120, 180, 240, and 300 min after injections for the evaluation of the visual object, acoustic and the tactile response, and at 15, 45, 75, 135, 195, 255, and 315 min after injections for the evaluation of visual placing response. Behavioral tests were conducted in a thermostated (temperature: 20–22 °C, humidity: 45–55%) and light (150 lx) controlled room with a background noise of 40 ± 4 dB. The apparatus for the visual object, acoustic and tactile sensorimotor tests consisted of an experimental chamber (350 × 350 × 350 mm) with black methacrylate walls and a transparent front door. During the week before the experiment, each mouse was placed in the box and handled (once a day) on every other day, i.e., 3 times, to get used to both the environment and the experimenter. To avoid olfactory cues, cages were carefully cleaned with a dilute (5%) ethanol solution and rinsed with water. All experiments were performed between 8:30 AM and 2:00 PM and conducted by trained observers working in pairs who were blinded to the treatment being tested (Ossato et al. [2015]). The behavior of mice was videotaped by a camera (B/W USB Camera day & night with varifocal lens; Ugo Basile, Italy) placed at the top or on one side of the box and analyzed off-line by a different trained operator. […] Sensory gating was evaluated by analysis of the pre-pulse inhibition (PPI) of the acoustic startle reflex as previously described (Bilel et al. [2020]). […]

CD-1 male mice [4] = assay: Overall tactile response (vibrissae, corneal, pinnae reflexes); details: AM 251 6 mg/kg i.p. before MAM-2201 6 mg/kg
Experimental: For the overall study 234 mice were used. In sensorimotor (visual object, visual placing, acoustic, and overall tactile responses) tests for MAM-2201, experiments for each treatment dose (vehicle or 5 different MAM-2201 doses, 0.01, 0.1, 1, 3, and 6 mg/kg) used 8 mice (total mice used: 48) and for MAM-2201 with AM-251 pretreatment, experiments for each dose regimen (vehicle + AM-251 or MAM-2201 + AM-251, 6 mg/kg) used 16 mice. In the analysis of spontaneous locomotion (open field test) for MAM-2201, experiments for each treatment regimen (vehicle or 4 different MAM-2201 doses, 0.01, 0.1, 1, and 6 mg/kg) used 10 mice (total mice used: 50). In the PPI test for MAM-2201, experiments for each treatment (vehicle or 3 different MAM-2201 doses, 0.01, 0.1, and 1 mg/kg) used 10 mice (total mice used: 40), while for MAM-2201 experiments in the Novel Object Recognition (NOR) test for each treatment regimen (vehicle or 3 different MAM-2201 and vehicle or 3 different AM-2201 doses, 0.01, 0.1, and 1 mg/kg) used 10 mice (total mice used: 80). In the present study the effect of MAM-2201 on sensorimotor responses was investigated using a battery of behavioral tests widely used in studies of “safety-pharmacology,” that we routinely adopted in our laboratory, for the preclinical characterization of new molecules in rodents (Ossato et al. [2015]; Vigolo et al. [2015]; Bilel et al. [2020]). The voluntary and involuntary motor responses of the animal to different visual, acoustic, and tactile stimuli were evaluated according to the procedure described in our previous studies (Ossato et al. [2015]; Bilel et al. [2020]). To reduce the number of animals used, mice were evaluated in functional observational tests carried out in a consecutive manner according to the following time scheme: observation of visual object responses (frontal and lateral view), acoustic response, tactile response (vibrissae, corneal and pinnae reflexes), and visual placing response. Sensorimotor tests were measured at 10, 30, 60, 120, 180, 240, and 300 min after injections for the evaluation of the visual object, acoustic and the tactile response, and at 15, 45, 75, 135, 195, 255, and 315 min after injections for the evaluation of visual placing response. Behavioral tests were conducted in a thermostated (temperature: 20–22 °C, humidity: 45–55%) and light (150 lx) controlled room with a background noise of 40 ± 4 dB. […] The behavior of mice was videotaped by a camera (B/W USB Camera day & night with varifocal lens; Ugo Basile, Italy) placed at the top or on one side of the box and analyzed off-line by a different trained operator. […] Sensory gating was evaluated by analysis of the pre-pulse inhibition (PPI) of the acoustic startle reflex as previously described (Bilel et al. [2020]). […]

Cc1c(C(=O)NN2CCCCC2)nn(-c2ccc(Cl)cc2Cl)c1-c1ccc(I)cc1 [AM 251, 1-(2,4-Dichlorophenyl)-5-(4-iodophenyl)-4-methyl-N-(piperidin-1-yl)-1H-pyrazole-3-carboxamide, reference compound]
effect of pre-treatment on MAM-2201-induced inhibition of visual object response (CD-1 male mice [1]): significantly prevented
effect of pre-treatment on MAM-2201-induced inhibition of visual placing response (CD-1 male mice [2]): prevented
effect of pre-treatment on MAM-2201-induced inhibition of acoustic response (CD-1 male mice [3]): prevented
effect of pre-treatment on MAM-2201-induced inhibition of overall tactile response (CD-1 male mice [4]): prevented
